# Measurements published in the CheMixHub viscosity set.
# ± gives the uncertainty stated by the source.
# Assay: xn = mol fraction of the nth substance listed
smiles,measurement,setting,value
CCCCNCCCC + CCCCCO,viscosity,"303.15 K, 101.33 kPa, x1 = 0.0971",2.493 ± 0.029 mPa·s
same,viscosity,"303.15 K, 101.33 kPa, x1 = 0.2014",2.178 ± 0.025 mPa·s
same,viscosity,"303.15 K, 101.33 kPa, x1 = 0.3007",1.913 ± 0.023 mPa·s
same,viscosity,"303.15 K, 101.33 kPa, x1 = 0.4003",1.676 ± 0.02 mPa·s
same,viscosity,"303.15 K, 101.33 kPa, x1 = 0.5004",1.473 ± 0.018 mPa·s
same,viscosity,"303.15 K, 101.33 kPa, x1 = 0.5841",1.319 ± 0.016 mPa·s
same,viscosity,"303.15 K, 101.33 kPa, x1 = 0.6901",1.142 ± 0.014 mPa·s
same,viscosity,"303.15 K, 101.33 kPa, x1 = 0.7836",1.006 ± 0.013 mPa·s
same,viscosity,"303.15 K, 101.33 kPa, x1 = 0.8845",0.8804 ± 0.011 mPa·s
same,viscosity,"313.15 K, 101.33 kPa, x1 = 0.0971",2.078 ± 0.024 mPa·s
same,viscosity,"313.15 K, 101.33 kPa, x1 = 0.2014",1.814 ± 0.022 mPa·s
same,viscosity,"313.15 K, 101.33 kPa, x1 = 0.3007",1.601 ± 0.019 mPa·s
same,viscosity,"313.15 K, 101.33 kPa, x1 = 0.4003",1.41 ± 0.017 mPa·s
same,viscosity,"313.15 K, 101.33 kPa, x1 = 0.5004",1.241 ± 0.015 mPa·s
same,viscosity,"313.15 K, 101.33 kPa, x1 = 0.5841",1.116 ± 0.014 mPa·s
same,viscosity,"313.15 K, 101.33 kPa, x1 = 0.6901",0.9767 ± 0.012 mPa·s
same,viscosity,"313.15 K, 101.33 kPa, x1 = 0.7836",0.8701 ± 0.011 mPa·s
same,viscosity,"313.15 K, 101.33 kPa, x1 = 0.8845",0.7633 ± 0.01 mPa·s
C1CC[C@H]2CCCC[C@H]2C1 + O=C1CCCCC1,viscosity,"293.15 K, 101.3 kPa, x2 = 0.05",3.262 ± 0.048 mPa·s
same,viscosity,"293.15 K, 101.3 kPa, x2 = 0.1446",3.118 ± 0.044 mPa·s
same,viscosity,"293.15 K, 101.3 kPa, x2 = 0.2281",3.006 ± 0.041 mPa·s
same,viscosity,"293.15 K, 101.3 kPa, x2 = 0.35",2.863 ± 0.038 mPa·s
same,viscosity,"293.15 K, 101.3 kPa, x2 = 0.4482",2.767 ± 0.035 mPa·s
same,viscosity,"293.15 K, 101.3 kPa, x2 = 0.5559",2.68 ± 0.033 mPa·s
same,viscosity,"293.15 K, 101.3 kPa, x2 = 0.6271",2.634 ± 0.032 mPa·s
same,viscosity,"293.15 K, 101.3 kPa, x2 = 0.7252",2.586 ± 0.031 mPa·s
same,viscosity,"293.15 K, 101.3 kPa, x2 = 0.8051",2.56 ± 0.03 mPa·s
same,viscosity,"293.15 K, 101.3 kPa, x2 = 0.8571",2.549 ± 0.029 mPa·s
same,viscosity,"293.15 K, 101.3 kPa, x2 = 0.9322",2.543 ± 0.029 mPa·s
same,viscosity,"303.15 K, 101.3 kPa, x2 = 0.05",2.558 ± 0.038 mPa·s
same,viscosity,"303.15 K, 101.3 kPa, x2 = 0.1446",2.471 ± 0.035 mPa·s
same,viscosity,"303.15 K, 101.3 kPa, x2 = 0.2281",2.399 ± 0.033 mPa·s
same,viscosity,"303.15 K, 101.3 kPa, x2 = 0.35",2.302 ± 0.031 mPa·s
same,viscosity,"303.15 K, 101.3 kPa, x2 = 0.4482",2.231 ± 0.029 mPa·s
same,viscosity,"303.15 K, 101.3 kPa, x2 = 0.5559",2.159 ± 0.027 mPa·s
same,viscosity,"303.15 K, 101.3 kPa, x2 = 0.6271",2.115 ± 0.026 mPa·s
same,viscosity,"303.15 K, 101.3 kPa, x2 = 0.7252",2.06 ± 0.025 mPa·s
same,viscosity,"303.15 K, 101.3 kPa, x2 = 0.8051",2.019 ± 0.024 mPa·s
same,viscosity,"303.15 K, 101.3 kPa, x2 = 0.8571",1.995 ± 0.023 mPa·s
same,viscosity,"303.15 K, 101.3 kPa, x2 = 0.9322",1.964 ± 0.023 mPa·s
CC(CC(C)(C)C)CC(C)(C)CC(C)(C)C (centres undefined) + CCCCCCCCCCCCC,viscosity,"293.15 K, 100 kPa, x2 = 0.125",3.28 ± 0.15 mPa·s
same,viscosity,"293.15 K, 100 kPa, x2 = 0.25",2.98 ± 0.14 mPa·s
same,viscosity,"293.15 K, 100 kPa, x2 = 0.375",2.69 ± 0.12 mPa·s
same,viscosity,"293.15 K, 100 kPa, x2 = 0.5",2.49 ± 0.11 mPa·s
same,viscosity,"293.15 K, 100 kPa, x2 = 0.625",2.29 ± 0.1 mPa·s
same,viscosity,"293.15 K, 100 kPa, x2 = 0.75",2.14 ± 0.1 mPa·s
same,viscosity,"293.15 K, 100 kPa, x2 = 0.875",1.98 ± 0.09 mPa·s
same,viscosity,"303.15 K, 100 kPa, x2 = 0.125",2.65 ± 0.12 mPa·s
same,viscosity,"303.15 K, 100 kPa, x2 = 0.25",2.39 ± 0.11 mPa·s
same,viscosity,"303.15 K, 100 kPa, x2 = 0.375",2.18 ± 0.1 mPa·s
same,viscosity,"303.15 K, 100 kPa, x2 = 0.5",2.07 ± 0.09 mPa·s
same,viscosity,"303.15 K, 100 kPa, x2 = 0.625",1.89 ± 0.09 mPa·s
same,viscosity,"303.15 K, 100 kPa, x2 = 0.75",1.76 ± 0.08 mPa·s
same,viscosity,"303.15 K, 100 kPa, x2 = 0.875",1.64 ± 0.07 mPa·s
same,viscosity,"313.15 K, 100 kPa, x2 = 0.125",2.15 ± 0.1 mPa·s
same,viscosity,"313.15 K, 100 kPa, x2 = 0.25",1.96 ± 0.09 mPa·s
same,viscosity,"313.15 K, 100 kPa, x2 = 0.375",1.79 ± 0.08 mPa·s
same,viscosity,"313.15 K, 100 kPa, x2 = 0.5",1.71 ± 0.08 mPa·s
same,viscosity,"313.15 K, 100 kPa, x2 = 0.625",1.57 ± 0.07 mPa·s
same,viscosity,"313.15 K, 100 kPa, x2 = 0.75",1.47 ± 0.07 mPa·s
same,viscosity,"313.15 K, 100 kPa, x2 = 0.875",1.39 ± 0.06 mPa·s
same,viscosity,"323.15 K, 100 kPa, x2 = 0.125",1.79 ± 0.08 mPa·s
same,viscosity,"323.15 K, 100 kPa, x2 = 0.25",1.63 ± 0.07 mPa·s
same,viscosity,"323.15 K, 100 kPa, x2 = 0.375",1.51 ± 0.07 mPa·s
same,viscosity,"323.15 K, 100 kPa, x2 = 0.5",1.43 ± 0.06 mPa·s
same,viscosity,"323.15 K, 100 kPa, x2 = 0.625",1.33 ± 0.06 mPa·s
same,viscosity,"323.15 K, 100 kPa, x2 = 0.75",1.25 ± 0.06 mPa·s
same,viscosity,"323.15 K, 100 kPa, x2 = 0.875",1.18 ± 0.05 mPa·s
CC(CC(C)(C)C)CC(C)(C)CC(C)(C)C (centres undefined) + Cc1ccccc1,viscosity,"298.15 K, 100 kPa, x2 = 0.4498",1.499 ± 0.14 mPa·s
same,viscosity,"298.15 K, 100 kPa, x2 = 0.7104",0.946 ± 0.09 mPa·s
same,viscosity,"298.15 K, 100 kPa, x2 = 0.8804",0.684 ± 0.065 mPa·s
same,viscosity,"313.15 K, 100 kPa, x2 = 0.4498",1.196 ± 0.11 mPa·s
same,viscosity,"313.15 K, 100 kPa, x2 = 0.7104",0.78 ± 0.074 mPa·s
same,viscosity,"313.15 K, 100 kPa, x2 = 0.8804",0.58 ± 0.055 mPa·s
